Measurements published in US20110039763A1, “TARGETED ANTIMICROBIAL MOIETIES” (C3 JIAN, INC., priority 2009, published 2011).
Entries after “also recorded” stand apart in the source; their conditions may differ. Ends that are not written are not given here.

Columns and labels:
[1] = system: microorganisms; assay: Targeting peptide binding to target microorganisms (Tables 3, 10, 12); conditions: microorganism(s) the targeting peptide binds; binding in aqueous buffers varied with peptide solubility, preferably 1x PBS
[2] = system: microorganisms; assay: Peptide activities: targeting/binding, antimicrobial, growth or phenotype altering (Tables 7, 8); format: cell-based; conditions: peptides having multiple activities
[3] = system: S. pneumoniae; assay: MIC test / antimicrobial activity, S. pneumoniae; format: cell-based, Streptococcus pneumoniae
Experimental: (§1) The active AMPs, STAMPs and the like can be identified and/or validated using an in vitro screening assay.
(§2) It will be appreciated that other assays as are well known in the art or that will become apparent to those having skill in the art upon review of this disclosure may also be used to identify active AMPs. Such assays include, for example, the assay described in Lehrer et al. (1988) J. Immunol.
(§3) Peptides were evaluated for basic antimicrobial activity by broth microdilution, as described previously (Eckert et al. (2006) Antimicrob Agents Chemother., 50: 3651-3657; Eckert et al. (2006) Antimicrob Agents Chemother., 50: 1480-1488). Briefly, ˜1×10^5 cfu/mL bacteria were diluted in TH (S. mutans), or Mueller-Hinton (MH) broth (all other organisms) and distributed to 96-well plates. Serially-diluted (2-fold) peptides were then added and the plates incubated at 37° C. for 18-24 h. […] All experiments were conducted 10 times.

[4] = system: microorganisms; assay: Morphology, biofilm and growth disrupting peptides (Table 5); format: cell-based; design: key: A: Peptide aggregates; B: Less hyphal formation; Clumps; Diffuse clumps and small polyps; F: Diffuse growth; H: Thin; I: Growth inhibition; Microcolony formation; Rippled; Small polyps; Thick; W: Halo formation on top, microlonies on bottom
Text: In certain embodiments peptides that induce alterations in phenotype or other biological activities can also be used as antimicrobial effector moieties.

[5] = system: S. mutans; assay: MIC test (broth microdilution) / antimicrobial activity, S. mutans; format: cell-based, Streptococcus mutans
Experimental: as §1, §2, §3

[6] = system: B. subtilis; assay: MIC test / antimicrobial activity, B. subtilis; format: cell-based, Bacillus subtilis; conditions: B. subtilis
Experimental: as §1, §2, §3

[7] = system: A. niger; assay: MIC test / antimicrobial activity, A. niger; format: cell-based, Aspergillus niger
Experimental: as §1, §2, §3

[8] = system: MRSA; assay: MIC test / antimicrobial activity, MRSA; format: cell-based, Methicillin-resistant Staphylococcus aureus
Experimental: as §1, §2, §3

[9] = system: T. rubrum; assay: MIC test / antimicrobial activity, T. rubrum; format: cell-based, Trichophyton rubrum
Experimental: as §1, §2, §3

ASKQASKQASKQASKQASKQASRSLKNHLL [PF-523]
Target(s) [1]: S. epidermidis; also recorded: M. luteus; also recorded: C. albicans; also recorded: S. pneumoniae; also recorded: C. jeikeium; also recorded: C. jejuni | Activities [2]: B M | Organism MIC (μM) [3]: S. pneumoniae, 50 μM

CGKLLEQKNFFLKTR [PF-521]
Target(s) [1]: S. epidermidis; also recorded: E. coli; also recorded: P. aeruginosa; also recorded: S. pneumoniae; also recorded: E. faecalis | Activities [2]: G B M | Organism, effect ([4]; S. pneumoniae): S. pneumoniae (H) | Organism MIC (μM) [3]: S. pneumoniae, 50 μM

FIRKFLKKWLL [K-9]
Organism MIC (μM) [5]: S. mutans, 4 μM

FLKFLKKFFKKLKY [K-20]
Organism MIC (μM) [5]: S. mutans, 8 μM

FQKPFTGEEVEDFQDDDEIPTII [PF-437]
Activities [2]: G M | Organism, effect ([4]; S. pneumoniae): S. pneumoniae (I) | Organism MIC (μM) [3]: S. pneumoniae, 50 μM

FTRKFLKFLHL [K-17]
Organism MIC (μM) [5]: S. mutans, 8 μM

GIFKKFVKILYKVQKL [K-22]
Organism MIC (μM) [5]: S. mutans, 8 μM

GILKKLFTKVF [K-13]
Organism MIC (μM) [5]: S. mutans, 16 μM

GIVLIGLKLIPLLANVLR [PF-322]
Activities [2]: G M | Organism, effect: B. subtilis ([4]; B. subtilis): B. subtilis (H) | Organism, effect: S. epidermidis ([4]; S. epidermidis): S. epidermidis (C) | Organism MIC (μM) [6]: B. subtilis, 50 μM

GLGRVIGRLIKQIIWRR [K-1]
Organism MIC (μM) [5]: S. mutans, 25 μM

GWLKMFKKIIGKFGKF [K-21]
Organism MIC (μM) [5]: S. mutans, 8 μM

KFSDQIDKGQDALKDKLGDL [PF-525]
Activities [2]: G M | Organism, effect ([4]; S. pneumoniae): S. pneumoniae (H) | Organism MIC (μM) [7]: A. niger, 50 μM | Organism MIC (μM) [3]: S. pneumoniae, 50 μM

KILKFLFKKVF [K-8]
Organism MIC (μM) [5]: S. mutans, 4 μM

KILKFLFKQVF [K-11]
Organism MIC (μM) [5]: S. mutans, 4 μM

KILKKLFKFVF [K-12]
Organism MIC (μM) [5]: S. mutans, 8 μM

KKFKKFKVLKIL [K-18]
Organism MIC (μM) [5]: S. mutans, 16 μM

KLFKFLRKHLL [K-10]
Organism MIC (μM) [5]: S. mutans, 4 μM

LGLTAGVAYAAQPTNQPTNQPTNQPTNQPTNQPTNQPRW-NH2 [PF-520]
Activities [2]: G B M | Organism, effect ([4]; S. pneumoniae): S. pneumoniae (M) | Organism MIC (μM) [3]: S. pneumoniae, 50 μM

LLKLLKLKKLKF [K-19]
Organism MIC (μM) [5]: S. mutans, 16 μM

LRKFLHKLF [K-14]
Organism MIC (μM) [5]: S. mutans, 8 μM

LRKNLRWLF [K-15]
Organism MIC (μM) [5]: S. mutans, 4 μM

LSEMERRRLRKRA-NH2 [PF-529]
Target(s) [1]: S. epidermidis and E. coli and C. albicans and MRSA and S. pneumoniae and E. faecalis and C. jeikeium | Activities [2]: G B M | Organism, effect ([4]; S. pneumoniae): S. pneumoniae (H) | Organism MIC (μM) [7]: A. niger, 50 μM | Organism MIC (μM) [3]: S. pneumoniae, 50 μM

LVLRICTDLFTFIKWTIKQRKS [PF-497]
Target(s) [1]: S. mutans; also recorded: B. subtilis; also recorded: E. coli | Activities [2]: B M | Organism MIC (μM) [6]: B. subtilis, 50 μM

NYAVVSHT [PF-209]
Organism MIC (μM) [8]: MRSA, 50 μM | Target(s) [1]: C. albicans; also recorded: C. jeikeium; also recorded: C. jejuni | Activities [2]: G B M | Organism, effect: MRSA ([4]; MRSA): MRSA (I) | Organism, effect: P. aeruginosa [4]: P. aeruginosa (H) | Organism, effect: S. epidermidis ([4]; S. epidermidis): S. epidermidis (C)

NYRLVNAIFSKIFKKKFIKF [K-7]
Organism MIC (μM) [5]: S. mutans, 12.5 μM

PDAPRTCYHKPILAALSRIVVTDR [PF-524]
Target(s) [1]: S. epidermidis and E. coli and P. aeruginosa and C. albicans and MRSA and S. pneumoniae and E. faecalis and C. jeikeium | Activities [2]: G B M | Organism, effect ([4]; E. coli): E. coli (M) | Organism, effect ([4]; E. faecalis): E. faecalis (C) | Organism, effect ([4]; MRSA): MRSA (C) | Organism, effect ([4]; S. pneumoniae): S. pneumoniae (M) | Organism MIC (μM) [3]: S. pneumoniae, 50 μM

RESKLIAMADMIRRRI-NH2 [PF-545]
Organism MIC (μM) [8]: MRSA, 50 μM | Target(s) [1]: S. epidermidis; also recorded: E. coli; also recorded: P. aeruginosa; also recorded: S. pneumoniae; also recorded: E. faecalis; also recorded: C. jeikeium | Activities [2]: G B M | Organism, effect ([4]; B. subtilis): B. subtilis (I) | Organism, effect ([4]; C. albicans): C. albicans (B) | Organism, effect ([4]; C. jeikeium): C. jeikeium (H) | Organism, effect ([4]; E. faecalis): E. faecalis (H) | Organism MIC (μM) [7]: A. niger, 50 μM | Organism MIC (μM) [6]: B. subtilis, 25 μM

RRGCTERLRRMARRNAWDLYAEHFY [PF-148]
Activities [2]: G B M | Organism, effect: B. subtilis ([4]; B. subtilis): B. subtilis (I) | Organism, effect: C. albicans ([4]; C. albicans): C. albicans (B) | Organism, effect: C. jeikeium ([4]; C. jeikeium): C. jeikeium (H) | Organism, effect: C. jejuni ([4]; C. jejuni): C. jejuni (H) | Organism, effect: M. luteus ([4]; M. luteus): M. luteus (A) | Organism, effect: MRSA ([4]; MRSA): MRSA (C) | Organism, effect: S. epidermidis ([4]; S. epidermidis): S. epidermidis (D) | Organism, effect: S. pneumoniae ([4]; S. pneumoniae): S. pneumoniae (R) | Organism MIC (μM) [7]: A. niger, 50 μM | Organism MIC (μM) [6]: B. subtilis, 50 μM

SFMPEIQKNTIPTQMK [PF-512]
Target(s) [1]: S. pneumoniae; also recorded: C. jeikeium | Activities [2]: G B M | Organism, effect ([4]; S. pneumoniae): S. pneumoniae (H) | Organism MIC (μM) [3]: S. pneumoniae, 50 μM

SLQSQLGPCLHDQRH [PF-448]
Target(s) [1]: S. epidermidis; also recorded: M. luteus; also recorded: P. mirabilis; also recorded: E. coli; also recorded: S. pneumoniae; also recorded: E. faecalis; also recorded: C. jeikeium; also recorded: C. jejuni | Activities [2]: G B M | Organism, effect ([4]; S. pneumoniae): S. pneumoniae (I) | Organism MIC (μM) [7]: A. niger, 25 μM | Organism MIC (μM) [3]: S. pneumoniae, 50 μM

VLPFPAIPLSRRRACVAAPRPRSRQRAS [PF-168]
Organism MIC (μM) [8]: MRSA, 50 μM | Target(s) [1]: S. epidermidis and M. luteus and E. coli and C. albicans and MRSA and C. jeikeium and C. jejuni | Activities [2]: G B M | Organism, effect: MRSA ([4]; MRSA): MRSA (I) | Organism, effect: P. aeruginosa [4]: P. aeruginosa (H) | Organism MIC (μM) [7]: A. niger, 50 μM | Organism MIC (μM) [9]: T. rubrum, 50 μM

VMQSLYVKPPLILVTKLAQQN [PF-511]
Target(s) [1]: E. coli; also recorded: P. aeruginosa; also recorded: S. pneumoniae; also recorded: C. jeikeium | Activities [2]: G B M | Organism, effect ([4]; S. pneumoniae): S. pneumoniae (H) | Organism MIC (μM) [3]: S. pneumoniae, 50 μM

VYRKRKSILKIYAKLKGWH [K-2]
Organism MIC (μM) [5]: S. mutans, 12.5 μM

VYSFLYVLVIVRKLLSMKKRIERL [PF-499]
Target(s) [1]: S. mutans; also recorded: E. coli | Activities [2]: B M | Organism MIC (μM) [6]: B. subtilis, 50 μM

WSRVPGHSDTGWKVWHRW-NH2 [PF-547]
Target(s) [1]: S. epidermidis and E. coli and P. aeruginosa and C. albicans and MRSA and S. pneumoniae and E. faecalis | Activities [2]: G B M | Organism, effect ([4]; B. subtilis): B. subtilis (I) | Organism, effect ([4]; E. faecalis): E. faecalis (R) | Organism, effect ([4]; MRSA): MRSA (M) | Organism, effect ([4]; S. epidermidis): S. epidermidis (R) | Organism MIC (μM) [6]: B. subtilis, 25 μM | Organism MIC (μM) [9]: T. rubrum, 25 μM | Organism MIC (μM) [5]: S. mutans, 12.5 μM
